pIC50: −log10 of the molar value.
What was measured:
G9a [1] = target: T1, G9a (Homo sapiens, UniProt Q96KQ7); design: method as in PMID 31141392, PMID 31276898, PMID 29890830, PMID 33661013, PMID 30753076; conditions: previously reported, dependent on the assay conditions used; cited from earlier work
T1 construct: purchased BPS Bioscience 52051
T1 sequence (Q96KQ7 1-1210): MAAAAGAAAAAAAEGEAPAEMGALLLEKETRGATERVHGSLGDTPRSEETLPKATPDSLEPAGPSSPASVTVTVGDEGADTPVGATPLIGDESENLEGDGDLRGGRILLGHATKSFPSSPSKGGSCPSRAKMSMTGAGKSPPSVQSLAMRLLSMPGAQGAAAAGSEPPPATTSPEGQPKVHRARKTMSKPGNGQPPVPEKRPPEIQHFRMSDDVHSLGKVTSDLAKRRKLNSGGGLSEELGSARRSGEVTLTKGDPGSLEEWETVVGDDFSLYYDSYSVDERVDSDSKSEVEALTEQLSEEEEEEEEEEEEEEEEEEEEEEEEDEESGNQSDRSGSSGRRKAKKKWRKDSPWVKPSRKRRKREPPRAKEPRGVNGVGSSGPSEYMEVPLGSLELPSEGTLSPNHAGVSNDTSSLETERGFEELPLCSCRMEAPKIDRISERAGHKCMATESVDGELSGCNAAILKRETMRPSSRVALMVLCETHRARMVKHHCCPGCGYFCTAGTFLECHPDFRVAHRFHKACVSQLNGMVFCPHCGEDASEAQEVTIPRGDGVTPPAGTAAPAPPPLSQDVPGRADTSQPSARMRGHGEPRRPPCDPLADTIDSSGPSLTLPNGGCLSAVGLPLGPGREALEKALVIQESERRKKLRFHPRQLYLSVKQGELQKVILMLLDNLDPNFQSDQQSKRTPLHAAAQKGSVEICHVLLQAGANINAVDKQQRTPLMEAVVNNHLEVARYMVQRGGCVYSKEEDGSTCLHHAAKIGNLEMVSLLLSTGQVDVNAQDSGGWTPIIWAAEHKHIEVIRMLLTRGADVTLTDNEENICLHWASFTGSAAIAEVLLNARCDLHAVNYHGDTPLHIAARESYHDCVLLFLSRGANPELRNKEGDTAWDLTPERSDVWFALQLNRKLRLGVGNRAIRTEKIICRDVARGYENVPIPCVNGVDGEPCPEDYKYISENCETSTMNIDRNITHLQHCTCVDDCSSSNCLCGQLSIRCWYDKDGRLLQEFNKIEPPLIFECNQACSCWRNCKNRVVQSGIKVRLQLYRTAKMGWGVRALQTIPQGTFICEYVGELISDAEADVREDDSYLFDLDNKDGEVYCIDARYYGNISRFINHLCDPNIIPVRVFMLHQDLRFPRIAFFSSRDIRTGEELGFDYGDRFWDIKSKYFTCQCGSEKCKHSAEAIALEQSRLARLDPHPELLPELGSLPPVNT

PAMPA‐BBB assay = assay type: in vitro ADME; conditions: pig, PAMPA; PBS:EtOH (70 : 30); values as printed in text; read-out: in vitro permeability (Pe), PAMPA‐BBB
Procedure: To evaluate the brain penetration of the different compounds, a parallel artificial membrane permeation assay for BBB was used, following the method described by Di et al..[33] The in vitro Pe of fourteen commercial drugs through lipid extract of porcine brain membrane together with the test compounds were determined. Commercial drugs and assayed compounds were tested using a mixture of PBS:EtOH (70 : 30).

[2] = tested on: Aβ deposits in CL2006 strain; assay: Thioflavin‐S staining of Aβ aggregation; assay type: in vivo, Caenorhabditis elegans; conditions: head region, after 5 days of treatment, compared to the vehicle group
Procedure: The transgenic AD strain CL2006 is characterized by the expression of human Aβ1‐42 under the control of a muscle‐specific promoter, making it suitable to answer this objective in our work. As we mentioned above, UNC0638 was used as a positive control. […] After 5 days of treatment, adult CL2006 C. elegans were fixed in 4 % Paraformaldehyde/Phosphate‐buffered saline (PBS) (pH 7.5), for 24 hours at 4 °C. […] On the last day, nematodes were stained with 0.125 % Thioflavin‐S (ThS) (Sigma, CAS# 1326–12‐1) in 50 % ethanol (EtOH) for 2 min, destained in 50 % EtOH for 2 min, washed 3 times with PBS. To prepare the glass slide for microscopy, approximately 10 μL volume was transferred on a droplet of Fluoromount G (Electron Microscopy Sciences, CAT#17984‐25). Fluorescence images were acquired using a 20 Å∼ objective of a fluorescence microscope. Aβ in the head region of worms were quantified by counting the number of Th−S positive spots using ImageJ and were expressed as Aβ deposits/anterior area.

G9a [3] = target: T1, G9a; assay: G9a Homogeneous Assay Kit (AlphaLISA) G9a inhibition; assay type: biochemical
Procedure: The percentages of G9a activity for the 10 selected molecules were determined at 100 μM S‐adenosylmethionine (SAM) and peptide substrate using AlphaLISA® technology. These percentages were used to calculate the IC50.
G9a inhibitors were serially diluted between 5 nM and 0.001 nM in 100 % DMSO (Sigma, St. Louis, USA). Then, respective concentrations were subsequently diluted in MilliQ purified water to reach a final concentration ranging between 50 and 0.001 μM in 1 % DMSO in well.
Briefly, a sample containing the G9a enzyme is incubated with the biotinylated substrate plus inhibitor solution for two hours. Next, acceptor beads and primary antibody is added, followed by donor beads. Finally, the Alpha‐counts were read using an AlphaScreen microplate reader. The experiment was run per triplicate. G9aactivity(%)=(C-Cb)/(Ct-Cb)x100
Ct=The chemiluminescence reading in the absence of the compound. The data set here is defined as 100 % activity in the absence of the compound.
Cb=The chemiluminescence reading in absence of enzyme. The data set here is defined as 0 % activity in the absence of the enzyme.
C=The chemiluminescence reading in the presence of the compound.
Data analysis was conducted using GraphPad Prism ver. 9 statistical software. The statistical outliers were identified with Grubb's test and excluded from the analysis. Group comparisons were carried out with a One‐way Analysis of variance (ANOVA), followed by the Dunnett post hoc test. In some cases, comparison between groups was also performed by unpaired t‐test or One‐way ANOVA, followed by Fisher's LSD post hoc test. For the calculation of IC50, non‐linear regressions were performed. […] Values are shown as the mean ± Standard error of the mean (SEM) of at least n=3. Statistical significance was considered when p values were <0.05.

O=C1c2ccccc2-c2onc3c(N4CCCC4)cc(NCCN4CCCC4)c1c23 [Compound 7]
pIC50 (G9a [1]): 5.92

COc1cc2c(cc1OC)-c1c(C)c3cc(OC)c(OC)cc3c[n+]1CC2 [Compound 8, pseudodehydrocorydaline]
pIC50 (G9a [1]): 4.79

COc1cc2c(NC3CCN(C(C)C)CC3)nc(C3CCCCC3)nc2cc1OCCCN1CCCC1 [UNC0638, reference compound]
Papp (PAMPA‐BBB assay): 6.2 ×10⁻⁶ cm/s
reduction of Aβ deposition (Thioflavin S‐positive particles) [2]: approximately 25%
% G9a activity (G9a [3]; 0.0001 µM, first data set of Table S2): 36.4%
% G9a activity (G9a [3]; 0.0001 µM, second data set of Table S2): 37.2%
% G9a activity (G9a [3]; 0.0001 µM, third data set of Table S2): 36.8%
% G9a activity (G9a [3]; 0.001 µM, first data set of Table S2): 34.1%
% G9a activity (G9a [3]; 0.001 µM, second data set of Table S2): 35.7%
% G9a activity (G9a [3]; 0.001 µM, third data set of Table S2): 34.9%
% G9a activity (G9a [3]; 0.01 µM, first data set of Table S2): 17.0%
% G9a activity (G9a [3]; 0.01 µM, second data set of Table S2): 15.3%
% G9a activity (G9a [3]; 0.01 µM, third data set of Table S2): 16.1%
% G9a activity (G9a [3]; 0.1 µM, first data set of Table S2): 7.9%
% G9a activity (G9a [3]; 0.1 µM, second data set of Table S2): 6.8%
% G9a activity (G9a [3]; 0.1 µM, third data set of Table S2): 7.0%
% G9a activity (G9a [3]; 1 µM, first data set of Table S2): 5.2%
% G9a activity (G9a [3]; 1 µM, second data set of Table S2): 5.8%
% G9a activity (G9a [3]; 1 µM, third data set of Table S2): 6.3%
% G9a activity (G9a [3]; 10 µM, first data set of Table S2): 1.9%
% G9a activity (G9a [3]; 10 µM, second data set of Table S2): 2.6%
% G9a activity (G9a [3]; 10 µM, third data set of Table S2): 1.9%
% G9a activity (G9a [3]; 50 µM, first data set of Table S2): 0.1%
% G9a activity (G9a [3]; 50 µM, second data set of Table S2): 0.7%
% G9a activity (G9a [3]; 50 µM, third data set of Table S2): 0.3%
